Several values for one entry are separate records, joined by “and”; a condition that tells them apart may be missing. Equal entries are not always repeated.
Experiments:
Assay type in all cases: in vivo
[1] = bioavailability after oral administration (AUCpo/AUCiv), dogs; details: dog, plasma, oral vs intravenous, dose-standardised AUCpo/AUCiv, read-out: Bioavailabilities
From the text: (§1) The absorption from the digestive tract after oral administration can be calculated by comparison of the concentrations of the administered active ingredient determined in the blood plasma after oral and intravenous administration (dose-standardised AUCpo/AUCiv) [AUC=area under the curve]. […] Bioavailabilities of the hydrochloride hydrate of from 88% to 99% were found in dogs, and 75% and 96% in 2 monkeys. Since the absorption rate is at least equal to or greater than the bioavailability determined, very good absorption has thus also been found in these animal species.

[2] = absorption from the digestive tract after oral administration (AUCpo/AUCiv), rat; details: of the orally administered radioactively labelled substance
From the text: as §1

[3] = bioavailability after oral administration (AUCpo/AUCiv), monkeys; details: 2 monkeys (individual values); oral vs intravenous, dose-standardised AUCpo/AUCiv; hydrochloride hydrate
From the text: as §1

In the case of `Cc1cc(S(C)(=O)=O)c(S(C)(=O)=O)cc1C(=O)NC(=N)N.Cl.O` [hydrochloride hydrate, N-(4,5-bismethanesulfonyl-2-methylbenzoyl)guanidine, hydrochloride hydrate], the bioavailability [1] is reported as 88 to 99%, the absorption rate [2] is reported as 98% and the Bioavailabilities [3] is reported as 75% and 96%.

Source: patent US6673968B1, “Method of producing n-(4,5-bis-methanesulfonyl-2-methyl-benzoyl)-guanidine, the hydrochloride thereof” (Merck Patent Gesellschaft mit beschränkter Haftung, priority 1999, dated 2004)
